{
  "source": "patent US12419889B2",
  "about": "“Methods of treating chronic spontaneous urticaria using a bruton's tyrosine kinase inhibitor” (NOVARTIS AG, priority 2019, dated 2025)",
  "key": {"[1]": {"system": "allergen response (wheal size)", "assay": "Skin prick test (SPT) in healthy atopic subjects", "type": "in vivo, human", "conditions": "10 mg q.d.", "description": "The ability of compound (I) to inhibit a defined allergen response has been evaluated by means of the skin prick test (SPT) in healthy atopic subjects in the MAD study part of the first in human study. SPT was performed prior to dosing (at screening, baseline and pre-dose on Day 1) and at different time points after the first dose (Day 1) and after 11 days of once daily dosing (Day 12)."}, "[2]": {"system": "mast cell FcγRIII-mediated inflammation", "assay": "Reverse passive Arthus (RPA) model, skin swelling", "type": "in vivo", "conditions": "mouse RPA", "description": "The duration of the PD effect in skin after single dose was assessed in the reverse passive Arthus (RPA) model of mast cell FcγRIII—mediated inflammation. In this RPA model, a polyclonal IgG antibody is injected locally into the dermis, while the soluble antigen is given systemically by i.v. injection. In this mouse model, mast cell FcγRIII has a dominant role with only minor contributions by the complement system (Hazenbos et al. 1998, journal of immunology, 161(6), pp. 3026; Hazenbos et al., Immunity, 1996, 5(2), pp. 181; Köhl & Gessner 1999, Molecular immunology, 36(13-14), pp. 893; Sylvestre & Ravetch 1996, Immunity, 5(4), pp. 387; Sylvestre & Ravetch 1994, Science, 265(5175), pp. 1095). It has been shown that genetic BTK deficient mice are protected in the passive Arthus skin reaction (Fiedler et al. 2011, blood, 117(4), pp. 1329).\nOral treatment with compound (I) at a single dose of 3, 10, 30 and 100 mg/kg, given 2 hours prior to induction of the RPA response, reduced skin swelling in a dose-related manner. […] (FIG. 2)\nIn this model, the inhibition of skin swelling was maximal when compound (I) was dosed 2 hours prior to eliciting the Arthus reaction. The effect diminished gradually and reached baseline when the Arthus reaction was triggered 45 hours or later after compound (I) dosing."}, "[3]": {"system": "passive cutaneous anaphylaxis (PCA)", "assay": "Passive cutaneous anaphylaxis (PCA) model, Evans blue extravasation", "type": "in vivo", "conditions": "mouse PCA", "description": "The effects of compound (I) on acute skin hypersensitivity were also assessed after two oral doses of compound (I) in the mouse of model of passive cutaneous anaphylaxis (PCA) (Ovary 1958). The mouse PCA model was used at a low dose of sensitizing IgE antibody to minimize complement-dependent anaphylatoxins (Schafer et al. 2013, The journal of allergy and clinical immunology, 131(2), pp. 541; Hata et al. 1998, Journal of Experimental Medicine, 187(8), pp. 1235). […] (FIG. 3). Spleen occupancy at 2.5 hours post last dose ranged from 89.1 to 99.7% (representing peak occupancy) (FIG. 4)."}, "[4]": {"assay": "Safety and tolerability in healthy volunteers", "type": "in vivo, human", "description": "Standard safety monitoring was used throughout all study parts. A dedicated assessment of potential skin bruising events were included. All vital signs, physical examination and subject history, ECGs, adverse events, and laboratory safety parameters (blood chemistry, hematology and urinalysis) up to 96 hours post last dose as well as PK data from the previous dose group (if available) up to 48 hours post last dose were to be reviewed in a blinded fashion for each cohort before dose escalation. Summary safety reports of reported adverse events, clinical safety laboratory parameters, QTc and heart rate were provided after completion of each dose level.\nFor the analysis of adverse effects, the Placebo subjects from all SAD and MAD cohorts (2 per cohort) and separated by the SAD and MAD parts were pooled into one Placebo group (n=20 for SAD and n=16 for MAD) to be compared with each single compound (I) dose group (n=6 each) and the total compound (I) group (n=60 for SAD and n=48 for MAD). There were no apparent major differences in the demographic data between placebo and the active groups both for the SAD and MAD populations."}},
  "data": [
    {"smiles": "C=CC(=O)N(C)CCOc1c(N)ncnc1-c1cc(F)cc(NC(=O)c2ccc(C3CC3)cc2F)c1C", "note": "[Compound (I), N-(3-(6-Amino-5-(2-(N-methylacrylamido)ethoxy)pyrimidin-4-yl)-5-fluoro-2-methylphenyl)-4-cyclopropyl-2-fluorobenzamide]", "values": [
      {"measurement": "inhibition of wheal size in SPT", "setting": "[1]", "result": "minimal inhibition"},
      {"measurement": "time between dosing and Arthus trigger at which the effect reached baseline", "setting": "[2]; single dose", "result": "≥ 45", "unit": "h"},
      {"measurement": "inhibition of skin swelling", "setting": "[2]; single oral dose 3 mg/kg 2 hours prior to induction", "result": 22.9, "unit": "% inhibition"},
      {"measurement": "inhibition of skin swelling", "setting": "[2]; single oral dose 10 mg/kg 2 hours prior to induction", "result": 29.2, "unit": "% inhibition"},
      {"measurement": "inhibition of skin swelling", "setting": "[2]; single oral dose 30 mg/kg 2 hours prior to induction", "result": 73.0, "unit": "% inhibition"},
      {"measurement": "inhibition of skin swelling", "setting": "[2]; single oral dose 100 mg/kg 2 hours prior to induction", "result": 61.2, "unit": "% inhibition"},
      {"measurement": "inhibition of skin edema (Evans blue extravasation)", "setting": "[3]; two oral doses of 3 mg/kg 14 and 2 hours before challenge", "result": 60.7, "unit": "%"},
      {"measurement": "inhibition of skin edema (Evans blue extravasation)", "setting": "[3]; two oral doses of 10 mg/kg 14 and 2 hours before challenge", "result": 66.9, "unit": "%"},
      {"measurement": "inhibition of skin edema (Evans blue extravasation)", "setting": "[3]; two oral doses of 30 mg/kg 14 and 2 hours before challenge", "result": 69.2, "unit": "%"},
      {"measurement": "inhibition of skin edema (Evans blue extravasation)", "setting": "[3]; two oral doses of 100 mg/kg 14 and 2 hours before challenge", "result": 87.4, "unit": "%"},
      {"measurement": "serious or severe adverse events related to intake", "setting": "[4]; 0.5 mg to 600 mg", "result": "no serious or severe adverse event"},
      {"measurement": "tolerability", "setting": "[4]; 0.5 mg to 600 mg, single dose or up to 18 days once or twice daily", "result": "well tolerated"},
      {"measurement": "safety assessment of the FIH study", "setting": "[4]; dosing up to 600 mg", "result": "does not reveal significant safety concerns"}
    ]}
  ]
}
